According to patent EP1714978A1, “Peptides useful for diagnosis and therapy of tumors” (Deutsches Krebsforschungszentrum Stiftung des öffentlichen …, priority 2005, dated 2006):

What was measured:
[1] = system: various tumor cell lines; assay: Competition of ^125I-labelled FROP-1 uptake by unlabelled FROP-1, various tumor cell lines; format: binding; settings: in the presence of 10^-4 unlabelled FROP-1 as a competitor, 1 hour
Protocol: (§1) • (A) Mice: Female 6-week-old BALB/c nu/nu mice were obtained from Charles River WIGA (Sulzfeld, Germany) and housed in VentiRacks. For inoculation of the tumors in nude mice a Matrigel-matrix/cell suspension (5×10^6 cells) was injected subcutaneously into the anterior region of the mouse trunk. Tumors were grown up to a size of approximately 1.0 cm^3. All animals were cared for according to the German animal guidelines. • (B) Peptide synthesis and labeling: The FROP-1-Peptide (EDYELMDLLAYL) was obtained by solid-phase peptide synthesis using Fmoc-chemistry. The radiolabeling was achieved by iodination using the chloramine-T method (33). […] The solution was centrifuged 5 min at 13,000 rpm and the cleared lysate was analyzed by HPLC. • (D) In vitro binding assay: 300,000 cells were seeded into 6-well plates and cultivated for 24 hours. […] Radioactivity was determined with a gamma counter and calculated as percent applied dose per 10^6 cells. […] The organs were removed, weighed and the radioactivity was determined using an automated NaI(Tl) well counter (CobraII, Canberra Packard, Meriden, USA). The percentage of injected dose per gram of tissue was calculated.
(§2) 2 x 10^5 cells of various tumor cell lines were seeded into 6-well plates. […] The radioactivity of lysed cells was determined with a gamma counter. […]

[2] = system: FRO82-2 cells (follicular thyroid cancer cell line); assay: In vitro binding/uptake of ^125I-labelled FROP-1 by FRO82-2 cells; parameters: species or system human; settings: ^125I-labelled FROP-1, about 1 x 10^6 cpm per well, 1 hour, RPMI 1640 without FCS and BSA
Protocol: as §1, §2

[3] = system: MCF-7 cells (mamma carcinoma cell line); assay: In vitro binding/uptake of ^125I-labelled FROP-1 by MCF-7 cells; settings: ^125I-labelled FROP-1, about 1 x 10^6 cpm per well, 1 hour, RPMI 1640 without FCS and BSA
Protocol: as §1, §2

[4] = system: PC-3 (prostate carcinoma cell lines); assay: In vitro binding/uptake of ^125I-labelled FROP-1 by PC-3 cells; settings: ^125I-labelled FROP-1, about 1 x 10^6 cpm per well, 1 hour, RPMI 1640 without FCS and BSA
Protocol: as §1, §2

[5] = system: HeLa cells (cervix carcinoma cell line); assay: In vitro binding/uptake of ^125I-labelled FROP-1 by HeLa cells; settings: ^125I-labelled FROP-1, about 1 x 10^6 cpm per well, 1 hour, RPMI 1640 without FCS and BSA
Protocol: as §1, §2

[6] = system: DU-145 (prostate carcinoma cell lines); assay: In vitro binding/uptake of ^125I-labelled FROP-1 by DU-145 cells; settings: ^125I-labelled FROP-1, about 1 x 10^6 cpm per well, 1 hour, RPMI 1640 without FCS and BSA
Protocol: as §1, §2

[7] = system: FRO82-2 tumor; assay: Organ distribution in tumor-bearing nude mice; format: in vivo, Balb/c nu/nu mice; settings: summary statement; ^131I-FROP-1 i.v., values only in Figure 6
Protocol: as §1, with “(33). The labeled peptide was purified by HPLC on a LiChrosorb RP-select B 5 µm, 250 ×x 4 mm column (Merck, Darmstadt, Germany) using TRIS/phosphate and methanol as eluents.” for “(33).”, “calculated. […]” for “calculated.”

FROP-1: novel 12 amino acid peptide from phage display, aa sequence EDYELMDLLAYL
binding can be competed [1]: 95%
binding of FROP-1 to FRO82-2 cells [2]: efficient binding
binding of FROP-1 to MCF-7 cells [3]: efficient binding
binding of FROP-1 to PC-3 [4]: efficient binding
binding of FROP-1 to HeLa cells [5]: efficient binding
binding of FROP-1 to DU-145 [6]: efficient binding
accumulation in tumors in vivo [7]: accumulates in vivo at/in tumors
